The nature of the data set: Pharmacokinetics in non-tumor bearing BALB/C mice, IV and PO. The data set is classed as in vivo. The note with it: for Cmax—D: dose-normalised; for Tmax / half-life: mouse, plasma. How it is done: FIG. 14A-B are graphs of time (hours) versus plasma concentration (ng/mL) for intravenous (IV) (FIG. 14A) and oral (PO) (FIG. 14B) administration of 15a and 15n over 12 hours. Error bars represent the standard deviation in ng/mL from three independent mice per time point.
Clearance, Cmax, half life, dose/AUC, and bioavailability were calculated by statistical analysis using PHOENIX™ WINNONLIN™ v7.0 (Certara, Princeton, N.J.). The results are shown in FIGS. 14A and 14B and Table 4.

One may read the Tmax as the time at which the peak concentration occurs. One may read the half-life as the time needed for the level to fall by half in the phase considered. Read a low half-life as fast loss. Take `CC1(C)C(=O)N(c2ccc(C#N)c(C(F)(F)F)c2)C(=S)N1Cc1ccc(-c2c[nH]nn2)cc1` [Compound 15a, 4-(3-(4-(1H-1,2,3-triazol-4-yl)benzyl)-4,4-dimethyl-5-oxo-2-thioxoimidazolidin-1-yl)-2-(trifluoromethyl)benzonitrile]: under “IV, 1 mg/kg”, the “Cmax—D” value worked out at 453 kg·ng/mL/mg, the Tmax came out at 2 h and the half-life is 1080 min. In addition, where the note is “PO, 20 mg/kg”, the “Cmax—D” value was 412 kg·ng/mL/mg, the Tmax amounted to 2 h and the half-life was 1240 min.

For the origin of these results see patent US20230135524A1, “ARYL HYDANTOIN HETEROCYCLES AND METHODS OF USE” (The United States of America,as represented by the …, priority 2020, published 2023).
